Experiments:
[1] = biological target: Ephrin type-B receptor 2 (Homo sapiens) (UniProt P29323); conditions: Compound concentration 100.0 nM
[2] = biological target: Wee1-like protein kinase 2 (Homo sapiens) (UniProt P0C1S8); conditions: Compound concentration 100.0 nM
[3] = biological target: Serine/threonine-protein kinase PLK1 (Homo sapiens) (UniProt P53350); conditions: Compound concentration 100.0 nM
[4] = biological target: Cyclin-dependent kinase 4 (Homo sapiens) (UniProt P11802); conditions: Compound concentration 100.0 nM
[5] = biological target: Epithelial discoidin domain-containing receptor 1 (Homo sapiens) (UniProt Q08345); conditions: Compound concentration 100.0 nM
[6] = biological target: Interleukin-1 receptor-associated kinase 4 (Homo sapiens) (UniProt Q9NWZ3); conditions: Compound concentration 100.0 nM
[7] = biological target: Leucine-rich repeat serine/threonine-protein kinase 2 (Homo sapiens) (UniProt Q5S007); conditions: Compound concentration 100.0 nM
[8] = biological target: Tyrosine-protein kinase Tec (Homo sapiens) (UniProt P42680); conditions: Compound concentration 100.0 nM
[9] = test system: Proto-oncogene tyrosine-protein kinase receptor Ret (Homo sapiens), P07949 [V804L]; conditions: Compound concentration 100.0 nM
[10] = biological target: Vascular endothelial growth factor receptor 3 (Homo sapiens) (UniProt P35916); conditions: Compound concentration 100.0 nM
[11] = biological target: Serine/threonine-protein kinase D3 (Homo sapiens) (UniProt O94806); conditions: Compound concentration 100.0 nM
[12] = biological target: Mitotic checkpoint serine/threonine-protein kinase BUB1 (Homo sapiens) (UniProt O43683); conditions: Compound concentration 100.0 nM
[13] = biological target: Fibroblast growth factor receptor 4 (Homo sapiens) (UniProt P22455); conditions: Compound concentration 100.0 nM
[14] = biological target: 5-hydroxytryptamine receptor 1B (Homo sapiens) (UniProt P28222); conditions: Compound concentration 10.0 uM
[15] = biological target: Hepatocyte growth factor receptor (Homo sapiens) (UniProt P08581); conditions: Compound concentration 100.0 nM
[16] = biological target: Phosphatidylinositol 4,5-bisphosphate 3-kinase catalytic subunit delta isoform (Homo sapiens) (UniProt O00329); conditions: Compound concentration 100.0 nM
[17] = test system: Tyrosine-protein kinase ABL1 (Homo sapiens), P00519 [F317L]; conditions: Compound concentration 100.0 nM
[18] = biological target: Ribosomal protein S6 kinase alpha-5 (Homo sapiens) (UniProt O75582); conditions: Compound concentration 100.0 nM
[19] = biological target: Serine/threonine-protein kinase OSR1 (Homo sapiens) (UniProt O95747); conditions: Compound concentration 100.0 nM
[20] = biological target: Serine/threonine-protein kinase WNK3 (Homo sapiens) (UniProt Q9BYP7); conditions: Compound concentration 100.0 nM
[21] = biological target: Membrane-associated tyrosine- and threonine-specific cdc2-inhibitory kinase (Homo sapiens) (UniProt Q99640); conditions: Compound concentration 100.0 nM
[22] = biological target: 3-phosphoinositide-dependent protein kinase 1 (Homo sapiens) (UniProt O15530); conditions: Compound concentration 100.0 nM
[23] = biological target: 5-hydroxytryptamine receptor 7 (Homo sapiens) (UniProt P34969); conditions: Compound concentration 10.0 uM
[24] = biological target: T1, Dual specificity mitogen-activated protein kinase kinase 7 (Homo sapiens) (UniProt O14733); conditions: Compound concentration 100.0 nM
T1 sequence (whole entry): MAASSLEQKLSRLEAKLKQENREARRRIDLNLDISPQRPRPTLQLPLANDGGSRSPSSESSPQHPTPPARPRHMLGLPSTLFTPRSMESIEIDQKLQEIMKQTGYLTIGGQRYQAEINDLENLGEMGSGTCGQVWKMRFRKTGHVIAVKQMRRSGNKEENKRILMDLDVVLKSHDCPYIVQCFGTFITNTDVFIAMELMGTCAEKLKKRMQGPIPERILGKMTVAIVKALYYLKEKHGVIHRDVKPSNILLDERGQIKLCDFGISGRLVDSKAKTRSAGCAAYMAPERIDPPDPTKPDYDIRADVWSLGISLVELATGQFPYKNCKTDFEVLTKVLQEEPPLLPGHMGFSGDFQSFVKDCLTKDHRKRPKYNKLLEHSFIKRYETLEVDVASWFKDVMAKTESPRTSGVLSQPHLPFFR

[25] = biological target: Ephrin type-A receptor 7 (Homo sapiens) (UniProt Q15375); conditions: Compound concentration 100.0 nM
[26] = biological target: Mitogen-activated protein kinase kinase kinase kinase 2 (Homo sapiens) (UniProt Q12851); conditions: Compound concentration 100.0 nM
[27] = biological target: Beta-1 adrenergic receptor (Homo sapiens) (UniProt P08588); conditions: Compound concentration 10.0 uM
[28] = biological target: Leukocyte tyrosine kinase receptor (Homo sapiens) (UniProt P29376); conditions: Compound concentration 100.0 nM
[29] = biological target: Casein kinase I isoform gamma-3 (Homo sapiens) (UniProt Q9Y6M4); conditions: Compound concentration 100.0 nM
[30] = biological target: Serine/threonine-protein kinase WNK4 (Homo sapiens) (UniProt Q96J92); conditions: Compound concentration 100.0 nM
[31] = biological target: Dual specificity mitogen-activated protein kinase kinase 1 (Homo sapiens) (UniProt Q02750); conditions: Compound concentration 100.0 nM
[32] = biological target: Serine/threonine-protein kinase PAK 4 (Homo sapiens) (UniProt O96013); conditions: Compound concentration 100.0 nM
[33] = biological target: Rho-associated protein kinase 1 (Homo sapiens) (UniProt Q13464); conditions: Compound concentration 100.0 nM
[34] = biological target: Serine/threonine-protein kinase NIM1 (Homo sapiens) (UniProt Q8IY84); conditions: Compound concentration 100.0 nM
[35] = biological target: Serine/threonine-protein kinase ULK3 (Homo sapiens) (UniProt Q6PHR2); conditions: Compound concentration 100.0 nM
[36] = biological target: Glycogen synthase kinase-3 beta (Homo sapiens) (UniProt P49841); conditions: Compound concentration 100.0 nM
[37] = biological target: Serine/threonine-protein kinase B-raf (Homo sapiens) (UniProt P15056); conditions: Compound concentration 100.0 nM
[38] = biological target: Muscarinic acetylcholine receptor M1 (Homo sapiens) (UniProt P11229); conditions: Compound concentration 10.0 uM
[39] = biological target: Glycogen synthase kinase-3 alpha (Homo sapiens) (UniProt P49840); conditions: Compound concentration 100.0 nM
[40] = biological target: Ephrin type-A receptor 2 (Homo sapiens) (UniProt P29317); conditions: Compound concentration 100.0 nM

Chain of Glycogen synthase kinase-3 beta (Homo sapiens) (P49841 whole entry, looked up): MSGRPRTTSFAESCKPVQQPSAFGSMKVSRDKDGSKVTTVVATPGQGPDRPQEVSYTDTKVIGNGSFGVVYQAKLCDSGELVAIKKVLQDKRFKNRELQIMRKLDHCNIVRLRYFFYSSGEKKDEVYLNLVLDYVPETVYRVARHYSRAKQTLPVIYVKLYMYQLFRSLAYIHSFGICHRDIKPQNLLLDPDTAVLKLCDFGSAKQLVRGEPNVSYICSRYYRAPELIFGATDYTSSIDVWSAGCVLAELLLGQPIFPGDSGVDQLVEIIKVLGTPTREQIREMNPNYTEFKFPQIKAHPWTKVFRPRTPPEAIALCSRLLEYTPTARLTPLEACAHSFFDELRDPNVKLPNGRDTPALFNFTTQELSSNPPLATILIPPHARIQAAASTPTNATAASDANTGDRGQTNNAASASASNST
Chain of Proto-oncogene tyrosine-protein kinase receptor Ret (Homo sapiens), P07949 [V804L] (P07949 whole entry V804L): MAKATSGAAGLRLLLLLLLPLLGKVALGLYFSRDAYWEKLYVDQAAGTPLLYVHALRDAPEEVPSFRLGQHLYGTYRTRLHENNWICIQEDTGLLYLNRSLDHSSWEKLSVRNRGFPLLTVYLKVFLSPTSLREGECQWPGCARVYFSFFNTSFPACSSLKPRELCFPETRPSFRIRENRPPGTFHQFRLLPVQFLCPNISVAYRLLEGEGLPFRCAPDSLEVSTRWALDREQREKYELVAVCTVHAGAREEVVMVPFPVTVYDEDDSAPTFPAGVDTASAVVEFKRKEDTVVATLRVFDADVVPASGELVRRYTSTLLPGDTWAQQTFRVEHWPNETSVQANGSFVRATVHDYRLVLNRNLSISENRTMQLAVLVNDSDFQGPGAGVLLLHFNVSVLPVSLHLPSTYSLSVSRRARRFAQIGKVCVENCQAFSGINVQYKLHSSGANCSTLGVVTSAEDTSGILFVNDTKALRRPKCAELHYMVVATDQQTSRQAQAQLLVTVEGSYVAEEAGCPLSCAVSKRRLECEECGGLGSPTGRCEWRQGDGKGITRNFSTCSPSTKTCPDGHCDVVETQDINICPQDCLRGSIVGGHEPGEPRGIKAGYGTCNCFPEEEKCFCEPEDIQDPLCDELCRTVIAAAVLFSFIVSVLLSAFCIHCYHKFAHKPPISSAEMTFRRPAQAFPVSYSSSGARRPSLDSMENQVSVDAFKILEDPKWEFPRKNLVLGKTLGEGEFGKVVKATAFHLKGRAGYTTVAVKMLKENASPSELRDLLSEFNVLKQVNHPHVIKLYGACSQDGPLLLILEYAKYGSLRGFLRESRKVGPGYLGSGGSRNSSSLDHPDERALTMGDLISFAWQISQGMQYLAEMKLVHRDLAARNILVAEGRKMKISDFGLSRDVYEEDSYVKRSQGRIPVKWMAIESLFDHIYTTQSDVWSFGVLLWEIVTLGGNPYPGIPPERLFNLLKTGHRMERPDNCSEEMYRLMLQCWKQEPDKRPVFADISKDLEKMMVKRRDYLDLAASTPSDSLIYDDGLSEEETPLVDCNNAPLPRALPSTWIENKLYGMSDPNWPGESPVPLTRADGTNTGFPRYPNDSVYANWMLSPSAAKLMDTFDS
Chain of Serine/threonine-protein kinase D3 (Homo sapiens) (O94806 whole entry): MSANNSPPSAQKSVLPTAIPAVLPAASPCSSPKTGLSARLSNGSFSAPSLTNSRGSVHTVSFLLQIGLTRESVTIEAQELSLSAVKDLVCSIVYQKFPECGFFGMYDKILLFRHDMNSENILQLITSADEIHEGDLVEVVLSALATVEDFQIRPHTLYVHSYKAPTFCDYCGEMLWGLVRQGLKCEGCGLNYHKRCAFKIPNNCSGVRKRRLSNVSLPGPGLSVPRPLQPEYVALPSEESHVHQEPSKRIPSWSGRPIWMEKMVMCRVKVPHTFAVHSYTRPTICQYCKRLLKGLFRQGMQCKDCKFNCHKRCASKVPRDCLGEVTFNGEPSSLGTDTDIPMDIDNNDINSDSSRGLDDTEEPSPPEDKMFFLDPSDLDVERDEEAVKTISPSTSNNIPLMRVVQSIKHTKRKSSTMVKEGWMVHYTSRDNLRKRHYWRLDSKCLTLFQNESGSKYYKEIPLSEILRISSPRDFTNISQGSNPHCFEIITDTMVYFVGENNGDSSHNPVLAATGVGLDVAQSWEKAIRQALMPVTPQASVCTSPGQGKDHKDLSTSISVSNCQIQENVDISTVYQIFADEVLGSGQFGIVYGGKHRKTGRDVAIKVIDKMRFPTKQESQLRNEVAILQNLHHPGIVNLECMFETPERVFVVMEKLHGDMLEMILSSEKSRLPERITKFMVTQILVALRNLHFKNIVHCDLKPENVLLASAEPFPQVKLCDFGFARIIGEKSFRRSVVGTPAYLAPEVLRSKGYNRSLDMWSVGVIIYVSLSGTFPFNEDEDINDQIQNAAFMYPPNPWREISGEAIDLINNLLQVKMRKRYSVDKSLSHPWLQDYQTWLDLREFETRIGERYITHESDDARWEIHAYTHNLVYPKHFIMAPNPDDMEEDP
Chain of Mitogen-activated protein kinase kinase kinase kinase 2 (Homo sapiens) (Q12851 whole entry): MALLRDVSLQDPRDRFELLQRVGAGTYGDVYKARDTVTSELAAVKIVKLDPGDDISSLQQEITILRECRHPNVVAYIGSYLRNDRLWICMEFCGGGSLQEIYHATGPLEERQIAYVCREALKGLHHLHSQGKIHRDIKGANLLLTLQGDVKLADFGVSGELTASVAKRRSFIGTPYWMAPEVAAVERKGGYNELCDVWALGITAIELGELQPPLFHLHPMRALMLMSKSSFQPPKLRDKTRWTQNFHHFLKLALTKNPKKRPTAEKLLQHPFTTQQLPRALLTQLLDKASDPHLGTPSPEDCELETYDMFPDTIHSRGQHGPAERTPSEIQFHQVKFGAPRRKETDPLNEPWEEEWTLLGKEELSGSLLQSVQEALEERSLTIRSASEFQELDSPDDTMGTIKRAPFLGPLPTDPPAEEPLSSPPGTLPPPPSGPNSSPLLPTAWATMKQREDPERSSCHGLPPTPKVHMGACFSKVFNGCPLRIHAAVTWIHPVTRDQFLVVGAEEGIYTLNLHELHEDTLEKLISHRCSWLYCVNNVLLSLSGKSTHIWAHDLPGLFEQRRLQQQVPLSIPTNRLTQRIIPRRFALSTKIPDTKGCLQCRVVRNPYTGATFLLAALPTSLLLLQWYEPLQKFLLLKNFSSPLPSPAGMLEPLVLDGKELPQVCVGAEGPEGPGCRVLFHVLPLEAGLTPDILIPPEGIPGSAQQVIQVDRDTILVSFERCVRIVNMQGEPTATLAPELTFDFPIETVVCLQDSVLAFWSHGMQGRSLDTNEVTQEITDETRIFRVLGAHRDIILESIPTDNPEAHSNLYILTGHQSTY
Chain of Serine/threonine-protein kinase WNK4 (Homo sapiens) (Q96J92 whole entry): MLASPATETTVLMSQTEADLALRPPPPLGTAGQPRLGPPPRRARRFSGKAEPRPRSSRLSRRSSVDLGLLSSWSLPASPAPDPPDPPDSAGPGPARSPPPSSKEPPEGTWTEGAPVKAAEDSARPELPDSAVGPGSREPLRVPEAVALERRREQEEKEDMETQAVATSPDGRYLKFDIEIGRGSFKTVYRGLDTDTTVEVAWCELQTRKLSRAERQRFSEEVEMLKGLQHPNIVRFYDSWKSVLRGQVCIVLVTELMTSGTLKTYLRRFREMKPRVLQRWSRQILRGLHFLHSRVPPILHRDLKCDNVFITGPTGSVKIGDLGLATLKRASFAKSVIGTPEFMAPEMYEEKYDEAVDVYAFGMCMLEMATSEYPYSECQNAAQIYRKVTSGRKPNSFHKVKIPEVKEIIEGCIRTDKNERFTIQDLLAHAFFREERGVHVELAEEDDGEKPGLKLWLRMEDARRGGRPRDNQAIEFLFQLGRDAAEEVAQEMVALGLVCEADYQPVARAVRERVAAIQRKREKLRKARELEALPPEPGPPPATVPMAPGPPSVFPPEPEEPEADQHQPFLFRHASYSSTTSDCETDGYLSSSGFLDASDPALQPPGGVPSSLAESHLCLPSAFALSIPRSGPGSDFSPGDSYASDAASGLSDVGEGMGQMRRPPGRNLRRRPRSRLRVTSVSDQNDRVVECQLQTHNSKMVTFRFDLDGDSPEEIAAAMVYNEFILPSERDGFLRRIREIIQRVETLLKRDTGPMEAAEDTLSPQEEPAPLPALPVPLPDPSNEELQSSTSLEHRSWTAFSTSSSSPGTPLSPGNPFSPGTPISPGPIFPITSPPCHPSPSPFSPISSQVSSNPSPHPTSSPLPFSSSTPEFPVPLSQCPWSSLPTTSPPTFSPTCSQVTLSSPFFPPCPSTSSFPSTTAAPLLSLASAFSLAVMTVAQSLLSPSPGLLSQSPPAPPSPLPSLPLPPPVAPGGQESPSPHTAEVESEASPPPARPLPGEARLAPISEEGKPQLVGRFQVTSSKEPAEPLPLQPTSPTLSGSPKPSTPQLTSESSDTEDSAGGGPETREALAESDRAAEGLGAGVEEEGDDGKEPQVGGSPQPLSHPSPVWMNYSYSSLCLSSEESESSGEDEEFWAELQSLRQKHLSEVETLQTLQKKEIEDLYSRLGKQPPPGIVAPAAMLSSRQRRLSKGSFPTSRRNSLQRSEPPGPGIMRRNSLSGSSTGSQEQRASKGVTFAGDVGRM
Chain of Glycogen synthase kinase-3 alpha (Homo sapiens) (P49840 2-483 limits assumed): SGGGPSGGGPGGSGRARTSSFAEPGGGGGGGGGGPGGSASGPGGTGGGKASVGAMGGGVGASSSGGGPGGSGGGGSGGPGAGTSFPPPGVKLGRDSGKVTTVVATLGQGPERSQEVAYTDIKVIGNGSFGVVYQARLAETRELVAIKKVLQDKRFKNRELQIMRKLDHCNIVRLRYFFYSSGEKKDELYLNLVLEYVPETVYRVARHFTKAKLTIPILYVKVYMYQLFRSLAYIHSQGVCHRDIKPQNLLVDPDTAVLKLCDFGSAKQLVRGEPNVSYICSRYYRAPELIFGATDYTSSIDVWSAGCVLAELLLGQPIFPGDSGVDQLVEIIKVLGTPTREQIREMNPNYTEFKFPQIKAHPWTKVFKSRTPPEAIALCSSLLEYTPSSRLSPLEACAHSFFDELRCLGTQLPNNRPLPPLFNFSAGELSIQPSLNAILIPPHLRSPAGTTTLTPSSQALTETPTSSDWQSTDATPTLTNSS

Structure (SMILES)	residual activity [1]	residual activity [2]	residual activity [3]	residual activity [4]	residual activity [5]	residual activity [6]	residual activity [7]	residual activity [8]	residual activity [9]	residual activity [10]	residual activity [11]	residual activity [12]	residual activity [13]	inhibition [14]	residual activity [15]	residual activity [16]	residual activity [17]	residual activity [18]	residual activity [19]	residual activity [20]	other results
Cn1cc(Cl)c2c(Oc3c(F)cc(Nc4cc(Cl)nc(N)n4)cc3F)ccnc21 [BAY-4900]	100%	93%	83%	85%	100%	90%	75%	100%	91%	96%	100%	82%	86%	5.3%	90%	51%	94%	100%	93%	95%	residual activity [21]: 100%; residual activity [22]: 61%; inhibition [23]: -1.63%; residual activity [24]: 84%; residual activity [25]: 96%; residual activity [26]: 81%; inhibition [27]: -2.51%; residual activity [28]: 87%; residual activity [29]: 100%; residual activity [30]: 100%; residual activity [31]: 90%; residual activity [32]: 100%; residual activity [33]: 76%; residual activity [34]: 93%; residual activity [35]: 85%; residual activity [36]: 90%; residual activity [37]: 100%; inhibition [38]: -5.04%; residual activity [39]: 99%; residual activity [40]: 100%
Cc1c[nH]c2nccc(Oc3c(F)cc(Nc4cc(Cl)nc(N)n4)cc3F)c12 [BAY-549]	99%	91%	75%	67%	100%	85%	100%	86%	100%	98%	100%	75%	100%	-5.28%	83%	51%	84%	100%	92%	90%	residual activity [21]: 98%; residual activity [22]: 100%; inhibition [23]: 9.29%; residual activity [24]: 67%; residual activity [25]: 82%; residual activity [26]: 69%; inhibition [27]: 6.86%; residual activity [28]: 99%; residual activity [29]: 100%; residual activity [30]: 100%; residual activity [31]: 81%; residual activity [32]: 100%; residual activity [33]: 0.6%; residual activity [34]: 75%; residual activity [35]: 88%; residual activity [36]: 98%; residual activity [37]: 98%; inhibition [38]: -0.22%; residual activity [39]: 95%; residual activity [40]: 100%

Source: ChEMBL document CHEMBL4507274 (2021)
